Assay [1] concerns primary cultured neonatal microglia. Briefly: LPS induced NO release, Griess assay, laboratory scaled setup.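 As to active: compounds at or above the IC50 cutoff were called inactive.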 Conditions: for IC50: Mus musculus, Microglia. In kind it is cell-based, mouse. As for the experimental part: Primary cultured neonatal microglia. For preparation of cultured neonatal microglia, P0-P3 mice were used. 10 brains were extracted, meninges and cerebellum were removed and put on ice with Hank's balanced salt solution (HBSS). The dissected brains were washed 3 times before adding 400 μL trypsin (0.1 mg/L) and DNAse (5 μg/L) in phosphate buffered saline (PBS). After 2 min of incubation with this solution, the reaction was blocked by adding plain medium. After removal of the medium, 1 mg DNAse was added and the cells were mechanically dissociated, with a Pasteur pipette followed by a glass pipette. The cells were centrifuged for 10 min at 129 g at 4° C. The supernatant was discarded. The pellet was resuspended in plain medium and plated (2.5 brains/flask) in Poly-L-Lysine coated flasks. The cells were washed after 2 days with PBS and incubated for another 7 days in plain medium. Afterwards the medium was replaced by plain medium with 33% L929 conditioned medium. After 2 days, cells were harvested by shaking them for 30 min at 150 rpm. The supernatant was centrifuged for 10 min at 129 g at 4° C. The cells were plated into a 96 well plate (100 000 cells/well, 200 μL medium per well). This procedure could be repeated 2 times with a 2 day interval.
Griess assay. Cells were seeded according to the protocols described above, after compounds and stimuli were added, 100 μl of supernatant was transferred into a new 96 well plate and 100 μl freshly mixed Griess reagent were added. Griess reagent was composed of reagent A (100 mg Naphthylethylene in 50 ml aqua dest.) and reagent B (1 g Sulfanilamide, […] H3PO4 (85%) in 44 mL aqua dest.) mixed 1:1. The solution was carefully mixed and the absorbance was determined in a microplate reader at a wavelength of 550 nm.
Dissolved sodium nitrite in plain medium served as a standard. Total amount of nitrite was calculated by a linear regression of the standard curve.
The activity of the compounds listed in column 1 of Table 1 as inhibitors of NO production was compared in murine primary cultured neonatal microglia as described above.

The subject of assay [2] is iNOS. Briefly: NOS enzyme activity assay (Eurofins), iNOS. The assay is classed as biochemical. The conditions noted are these: C1: 1 μM up to 5 μM as printed; 30 min reaction. The protocol: In mammalians NO is produced by the three isoforms of NOS: iNOS, eNOS, and nNOS. To evaluate the direct influence of cl on the different isoforms of NOS, an enzyme activity assay was conducted by Eurofins. C1 was mixed with the enzyme buffer, which included co-factors and substrates and by adding the enzyme the reaction was initiated. After 30 min the reaction was stopped, and NO concentration was measured. The results are normalised to positive control performed without any additional compounds and are presented as percentage in inhibition. […] To test the compounds effect on iNOS a concentration range from […] 5 μM were applied ([…], 1, 10, 100 nM, 1, and 5 μM), and for testing eNOS and nNOS 1 nM and 1 μM were applied.

[3] abbreviates: inhibitors of NO production, murine primary cultured neonatal microglia, read-out: IC50.
Setting [4] is: inhibitors of NO production, murine primary cultured neonatal microglia, read-out: activity class (IC50).
Where [5] appears, read: inhibitors of NO production, murine primary cultured neonatal microglia.
The mark [6] stands for this setting: inhibitors of NO production, murine primary cultured neonatal microglia, read-out: active.

Read-outs that look alike come from different tables or passages of the source.

Take `COc1ccc(NC(=O)[C@@H](NC(=O)[C@@H]2CCCN2C(=O)CCc2ccccn2)c2ccc(OC)cc2)cc1` [Compound 25, (S)—N—((S)-1-(4-methoxyphenyl)-2-((4-methoxyphenyl)amino)-2-oxoethyl)-1-(3-(pyridin-2-yl)propanoyl)pyrrolidine-2-carboxamide]: the results for the IC50 in assay [1] (setting [3]) and in assay [1] (setting [4]) were 6.88 µM and under 10 µM, respectively. In addition, the active entry in assay [1] (setting [5]) is “YES”.
For `COc1ccc([C@H](NC(=O)[C@@H]2CCCN2C(=O)OCc2ccccc2)C(=O)Nc2cnc(C)s2)cc1` [Compound 26, benzyl (S)-2-(((S)-1-(4-methoxyphenyl)-2-((2-methylthiazol-5-yl)amino)-2-oxoethyl)carbamoyl)pyrrolidine-1-carboxylate], the values for the IC50 in assay [1] (setting [3]) and in assay [1] (setting [4]) were 2.5 µM and under 10 µM, respectively. Also, in assay [1] (setting [5]), the active entry is “YES”.
Take `COc1ccc([C@H](NC(=O)[C@@H]2CCCN2C(=O)OCc2ccccc2)C(=O)Nc2cnc(C3CC3)nc2)cc1` [Compound 27, benzyl(S)-2-(((S)-2-((2-cyclopropylpyrimidin-5-yl)amino)-1-(4-methoxyphenyl)-2-oxoethyl)carbamoyl)pyrrolidine-1-carboxylate]: the figures for the IC50 in assay [1] (setting [3]) and in assay [1] (setting [4]) were 1.91 µM and under 10 µM, respectively. The active result in assay [1] (setting [5]) was “YES”.
Consider `COc1ccc(NC(=O)[C@@H](NC(=O)[C@@H]2CCCN2C(=O)OC(C)(C)C)c2ccc(OC)cc2)cc1` [Compound 28, tert-butyl (S)-2-(((S)-1-(4-methoxyphenyl)-2-((4-methoxyphenyl)amino)-2-oxoethyl)carbamoyl)pyrrolidine-1-carboxylate], for which the IC50 in assay [1] (setting [3]) was 3.3 µM; in assay [1] (setting [4]), under 10 µM. Moreover, the active entry in assay [1] (setting [5]) is “YES”.
Turning to `COc1ccc(NC(=O)[C@@H](NC(=O)[C@@H]2CCCN2C(=O)OCc2ccccc2)c2ccc(OCCOCCOCCOCCOCCOCCNC(=O)CCCC[C@@H]3SC[C@@H]4NC(=O)N[C@@H]43)cc2)cc1` [Compound 29, benzyl (S)-2-(((S)-2-((4-methoxyphenyl)amino)-2-oxo-1-(4-((19-oxo-23-((3aS,4S,6aR)-2-oxohexahydro-1H-thieno[3,4-d]imidazol-4-yl)-3,6,9,12,15-pentaoxa-18-azatricosyl)oxy)phenyl)ethyl)carbamoyl)pyrrolidine-1-carboxylate], the IC50 was 2.36 µM in assay [1] (setting [3]) and under 10 µM in assay [1] (setting [4]). Besides, the active result in assay [1] (setting [5]) was “YES”.
With `COc1ccc(NC(=O)[C@@H](NC(=O)[C@@H]2CCN2C(=O)OCc2ccccc2)c2ccc(OC)cc2)cc1` [Compound 30, benzyl (S)-2-(((S)-1-(4-methoxyphenyl)-2-((4-methoxyphenyl)amino)-2-oxoethyl)carbamoyl)azetidine-1-carboxylate], in assay [1] (setting [4]), the IC50 was under 1 µM. Besides, in assay [1] (setting [5]), the active entry is recorded as “YES”.
Consider `COc1ccc(NC(=O)[C@@H](NC(=O)[C@@H]2C[C@@H]3CCCC[C@@H]3N2C(=O)OCc2ccccc2)c2ccc(OC)cc2)cc1` [Compound 31, benzyl(2S,3aS,7aS)-2-(((S)-1-(4-methoxyphenyl)-2-((4-methoxyphenyl)amino)-2-oxoethyl)carbamoyl)octahydro-1H-indole-1-carboxylate], for which the IC50 in assay [1] (setting [4]) is under 10 µM. Besides, the active entry in assay [1] (setting [5]) is “YES”.
Turning to `COc1ccc(NC(=O)[C@@H](NC(=O)[C@@H]2Cc3ccccc3CN2C(=O)OCc2ccccc2)c2ccc(OC)cc2)cc1` [Compound 32, benzyl (S)-3-(((S)-1-(4-methoxyphenyl)-2-((4-methoxyphenyl)amino)-2-oxoethyl)carbamoyl)-3,4-dihydroisoquinoline-2(1H)-carboxylate], the IC50 in assay [1] (setting [4]) was under 10 µM. The active entry in assay [1] (setting [5]) was “YES”.
Consider `COc1ccc(NC(=O)[C@@H](NC(=O)[C@]2(C)CCCN2C(=O)OCc2ccccc2)c2ccc(OC)cc2)cc1` [Compound 33, benzyl (S)-2-(((S)-1-(4-methoxyphenyl)-2-((4-methoxyphenyl)amino)-2-oxoethyl)carbamoyl)-2-methylpyrrolidine-1-carboxylate], for which the IC50 in assay [1] (setting [4]) is under 0.2 µM. Moreover, the active result in assay [1] (setting [5]) is recorded as “YES”.
Consider `COc1ccc(NC(=O)[C@@H](NC(=O)[C@@H]2CCCCN2C(=O)OCc2ccccc2)c2ccc(OC)cc2)cc1` [Compound 34, benzyl (S)-2-(((S)-1-(4-methoxyphenyl)-2-((4-methoxyphenyl)amino)-2-oxoethyl)carbamoyl)piperidine-1-carboxylate], for which the IC50 in assay [1] (setting [4]) is under 0.2 µM. In addition, in assay [1] (setting [5]), the active entry was “YES”.
As for `COc1ccc(NC(=O)[C@@H](NC(=O)[C@@H]2CCCN2CCCc2ccccc2)c2ccc(OC)cc2)cc1` [Compound 39, (S)—N—((S)-1-(4-methoxyphenyl)-2-((4-methoxyphenyl)amino)-2-oxoethyl)-1-(3-phenylpropyl)pyrrolidine-2-carboxamide], in assay [1] (setting [6]), the IC50 was at least 10 µM.
Same read-out and setting: to `COc1ccc([C@H](NC(=O)[C@@H]2CCCN2C(=O)OCc2ccccc2)C(=O)Nc2cnn(C)c2)cc1` [Compound 40, benzyl (S)-2-(((S)-1-(4-methoxyphenyl)-2-((1-methyl-1H-pyrazol-4-yl)amino)-2-oxoethyl)carbamoyl)pyrrolidine-1-carboxylate] belongs at least 10 µM; to `COc1ccc([C@H](NC(=O)[C@@H]2CCCN2C(=O)OCc2ccccc2)C(=O)Nc2cccc3c2ccn3C)cc1` [Compound 41, benzyl (S)-2-(((S)-1-(4-methoxyphenyl)-2-((1-methyl-1H-indol-4-yl)amino)-2-oxoethyl)carbamoyl)pyrrolidine-1-carboxylate], at least 10 µM; to `COc1ccc([C@H](NC(=O)[C@@H]2CCCN2C(=O)OCc2ccccc2)C(=O)Nc2ccc3c(c2)n(C)c(=O)n3C)cc1` [Compound 42, benzyl (S)-2-(((S)-2-((1,3-dimethyl-2-oxo-2,3-dihydro-1H-benzo[d]imidazol-5-yl)amino)-1-(4-methoxyphenyl)-2-oxoethyl)carbamoyl)pyrrolidine-1-carboxylate], at least 10 µM.
Take `COc1ccc([C@H](NC(=O)[C@@H]2CCCN2C(=O)OCc2ccccc2)C(=O)Nc2ccccc2)cc1` [Compound 43, benzyl (S)-2-(((S)-1-(4-methoxyphenyl)-2-oxo-2-(phenylamino)ethyl)carbamoyl)pyrrolidine-1-carboxylate]: the IC50 in assay [1] (setting [6]) was at least 10 µM.
Consider `COc1ccc(NC(=O)[C@@H](NC(=O)[C@@H]2CCCN2)c2ccc(OC)cc2)cc1` [Compound 44], for which, in assay [1] (setting [6]), the IC50 was at least 10 µM.
As to `COc1ccc(NC(=O)[C@@H](NC(=O)[C@@H]2CCCN2C(=O)CCCCCNC(=O)CCCC[C@@H]2SC[C@@H]3NC(=O)N[C@@H]32)c2ccc(OC)cc2)cc1` [Compound 45], the IC50 in assay [1] (setting [6]) was at least 10 µM.
On to `COc1ccc(NC(=O)[C@@H](NC(=O)[C@@H]2CCCN2C(C)=O)c2ccc(OC)cc2)cc1` [Compound 47], for which the IC50 in assay [1] (setting [6]) is at least 10 µM.
As to `COc1ccc([C@H](NC(=O)[C@@H]2CCCN2C(=O)OCc2ccccc2)C(=O)Nc2ccc3nncn3c2)cc1` [Compound 48], in assay [1] (setting [6]), the IC50 was at least 10 µM.
`COc1ccc([C@H](NC(=O)[C@@H]2CCCN2C(=O)OCc2ccccc2)C(=O)Nc2cccnc2)cc1` [Compound 49]: the IC50 in assay [1] (setting [6]) was at least 10 µM.
`COc1ccc(NC(=O)[C@H](NC(=O)[C@@H]2CCCN2C(=O)OCc2ccccc2)c2ccc(OC)cc2)cc1` [Compound 50, benzyl-(S)-2-(((R)-1-(4-methoxyphenyl)-2-((4-methoxyphenyl)amino)-2-oxoethyl)carbamoyl)-pyrrolidine-1-carboxylate]: the “inhibitory effect in the NO release assay” value in assay [1] (FIG. 9) is “not”. The IC50 in assay [1] (0.002 to 20 μM, FIG. 9, read-out: IC50, LPS induced NO production (stereoisomers)) was 40 µM; in assay [1] (setting [6]) it was at least 10 µM.
As to `COc1ccc(NC(=O)[C@@H](NC(=O)[C@@H]2C[C@@H](O)CN2C(=O)CCC2CCCCC2)c2ccc(OC)cc2)cc1` [Compound 53, (2S,4R)-1-(3-cyclohexylpropanoyl)-4-hydroxy-N—((S)-1-(4-methoxyphenyl)-2-((4-methoxyphenyl)amino)-2-oxoethyl)pyrrolidine-2-carboxamide], the IC50 in assay [1] (setting [4]) was under 1 µM. For the same compound, in assay [1] (setting [5]), the active result was “YES”.
Take `CC(=N)NCc1cccc(CN)c1` [W1400, reference compound]: in assay [2], the “enzymatic activity of iNOS” value is “reduce the enzyme activity as predicted”.
